The text below walks through data of publication PMC8434401, “Trifluoromethylated Flavonoid-Based Isoxazoles as Antidiabetic and Anti-Obesity Agents: Synthesis, In Vitro α-Amylase Inhibitory Activity, Molecular Docking and Structure–Activity Relationship Analysis” (Molecules, 2021).

Where two headings read alike, the source gives them in different places.

Series [1] concerns the target Aspergillus oryzae α-amylase (Aspergillus oryzae, UniProt P0C1B3). In words: biochemical. As to conditions: for inhibition at 50 µM: read-out: α-Amylase Inhibition PI ± SEM% (percentage inhibition). The procedure:
The α-amylase inhibition assays were carried out according to the protocol described by Chortani et al. (2021), with some modifications. In short, all of the compounds were dissolved in DMSO and then diluted in sodium phosphate buffer (0.02 M, pH 6.9 with 0.006 M NaCl). […] The samples were tested at different concentrations of 50, 25, 12.5, and 6.25 μM. After that, 50 μL of the sample solution was added to 50 μL of Aspergillus oryzae α-amylase solution (0.5 mg/mL) dissolved in the same buffer medium. After pre-incubation for 10 min at 25 °C, 50 μL of starch solution (1% in buffer solution) was added to the mixture. After 10 min of incubation at 25 °C, the product of the reaction was mixed with 100 μL of 3,5-dinitrosalicylic acid solution. At this point, the test tubes were placed for 5 min in a boiling water bath (100 °C), followed by cooling to room temperature. Next, each solution was diluted with 1 mL of distilled water. Over time, the absorbance was measured at 540 nm using a Thermo Scientific™ Multiskan™ GO Microplate Spectrophotometer using a 96-well microplate.
The α-amylase inhibitory activity was determined as follows:PI (%) = 100[(AbsControl−AbsSample)/(AbsControl)] where AbsControl is the absorbance of the solution without sample (buffer instead of the sample solution) and AbsSample is the absorbance of the mixture with the solution of the sample to be tested. […] Each assay was conducted in triplicate.

The mark [2] stands for this setting: Table S1, from the concentration-response curves used to calculate the IC50 values (concentrations in μM), read-out: log(IC50) (converted).
Setting [3] is: potency, concentration providing 50% inhibition, mean ± SEM, triplicate, read-out: α-Amylase Inhibition IC50 ± SEM.

Molecule `O=c1c(OCc2cc(-c3ccc(Br)cc3)no2)c(-c2ccc(C(F)(F)F)cc2)oc2ccc(Cl)cc12` [Compound 3d, 3-((3-(4-Bromophenyl)isoxazol-5-yl)methoxy)-6-chloro-2-(4-(trifluoromethyl)phenyl)-4H-chromen-4-one] came in with a melting point of 179 °C. Besides, in series [1] (setting [2]), the IC50 was 14.6 µM. Also, the IC50 in series [1] (setting [3]) was 14.6 ± 0.3 µM. In addition, the inhibition at 50 µM in series [1] was found to be 85.4 ± 0.9%.
On the same counts, the results for `COc1ccc(-c2cc(COc3c(-c4ccc(C(F)(F)F)cc4)oc4ccc(Cl)cc4c3=O)on2)cc1Br` [Compound 3l, 3-((3-(3-Bromo-4-methoxyphenyl)isoxazol-5-yl)methoxy)-6-chloro-2-(4-(trifluoromethyl)phenyl)-4H-chromen-4-one] are 144 °C, 23 µM, 23 ± 0.2 µM and 70.4 ± 0.4%.
The molecule `O=c1c(OCc2cc(-c3ccccc3)no2)c(-c2ccc(C(F)(F)F)cc2)oc2ccc(Cl)cc12` [Compound 3a, 6-Chloro-3-((3-phenylisoxazol-5-yl)methoxy)-2-(4-(trifluoromethyl)phenyl)-4H-chromen-4-one] returned a melting point of 134 °C. In addition, in series [1] (setting [2]), the IC50 was 27.2 µM. The IC50 in series [1] (setting [3]) came out at 27.2 ± 0.7 µM. Besides, the inhibition at 50 µM in series [1] was found to be 65.6 ± 0.2%.
For `COc1ccc(-c2cc(COc3c(-c4ccc(C(F)(F)F)cc4)oc4ccc(Cl)cc4c3=O)on2)cc1Cl` [Compound 3k, 6-Chloro-3-((3-(3-chloro-4-methoxyphenyl)isoxazol-5-yl)methoxy)-2-(4-(trifluoromethyl)phenyl)-4H-chromen-4-one], in that order: 141 °C, 21 µM, 21 ± 0.6 µM and 72.5 ± 1.1%.
For `O=c1c(OCc2cc(-c3ccc([N+](=O)[O-])cc3)no2)c(-c2ccc(C(F)(F)F)cc2)oc2ccc(Cl)cc12` [Compound 3g, 6-Chloro-3-((3-(4-nitrophenyl)isoxazol-5-yl)methoxy)-2-(4-(trifluoromethyl)phenyl)-4H-chromen-4-one], in that order: 175 °C, 18.1 µM, 18.1 ± 0.3 µM and 74.7 ± 0.3%.
On the same counts, the results for `COc1ccc(-c2cc(COc3c(-c4ccc(C(F)(F)F)cc4)oc4ccc(Cl)cc4c3=O)on2)cc1` [Compound 3h, 6-Chloro-3-((3-(4-methoxyphenyl)isoxazol-5-yl)methoxy)-2-(4-(trifluoromethyl)phenyl)-4H-chromen-4-one] are 152 °C, 13.3 µM, 13.3 ± 0.2 µM and 93.5 ± 1.1%.
For the molecule `O=c1c(OCc2cc(-c3ccc(F)cc3)no2)c(-c2ccc(C(F)(F)F)cc2)oc2ccc(Cl)cc12` [Compound 3b, 6-Chloro-3-((3-(4-fluorophenyl)isoxazol-5-yl)methoxy)-2-(4-(trifluoromethyl)phenyl)-4H-chromen-4-one], the melting point came to 147 °C. Further, the half-maximal inhibitory concentration (IC50) in series [1] (setting [2]) was 12.6 µM. Moreover, the IC50 in series [1] (setting [3]) was determined as 12.6 ± 0.2 µM. For the same molecule, in series [1], the inhibition at 50 µM is 94.7 ± 1.2%.
On the same counts, the results for `C#CCOc1c(-c2ccc(C(F)(F)F)cc2)oc2ccc(Cl)cc2c1=O` [Compound 2, 6-Chloro-3-(prop-2-yn-1-yloxy)-2-(4-(trifluoromethyl)phenyl)-4H-chromen-4-one] are 122 °C, 17.7 µM, 17.7 ± 0.2 µM and 75.2 ± 0.3%.
In the case of `Cc1ccc(-c2cc(COc3c(-c4ccc(C(F)(F)F)cc4)oc4ccc(Cl)cc4c3=O)on2)cc1` [Compound 3e, 6-Chloro-3-((3-(p-tolyl)isoxazol-5-yl)methoxy)-2-(4-(trifluoromethyl)phenyl)-4H-chromen-4-one], the melting point stood at 171 °C. In addition, in series [1] (setting [2]), the IC50 was 26 µM. The IC50 in series [1] (setting [3]) was found to be 26 ± 0.7 µM. For the same molecule, the inhibition at 50 µM in series [1] was found to be 65.4 ± 0.4%.
On the same counts, the results for `COc1ccc(-c2cc(COc3c(-c4ccc(C(F)(F)F)cc4)oc4ccc(Cl)cc4c3=O)on2)cc1OC` [Compound 3m, 6-Chloro-3-((3-(3,4-dimethoxyphenyl)isoxazol-5-yl)methoxy)-2-(4-(trifluoromethyl)phenyl)-4H-chromen-4-one] are 152 °C, 13.8 µM, 13.8 ± 0.1 µM and 93.3 ± 2%.
On the same counts, the results for `CC(C)(C)c1ccc(-c2cc(COc3c(-c4ccc(C(F)(F)F)cc4)oc4ccc(Cl)cc4c3=O)on2)cc1` [Compound 3f, 3-((3-(4-(Tert-butyl)phenyl)isoxazol-5-yl)methoxy)-6-chloro-2-(4-(trifluoromethyl)phenyl)-4H-chromen-4-one] are 112 °C, 27.6 µM, 27.6 ± 1.1 µM and 64.5 ± 0.7%.
On to `C[C@H]1O[C@H](O[C@H]2[C@H](O)[C@@H](O)[C@@H](O[C@H]3[C@H](O)[C@@H](O)C(O)O[C@@H]3CO)O[C@@H]2CO)[C@H](O)[C@@H](O)[C@@H]1N[C@H]1C=C(CO)[C@@H](O)[C@H](O)[C@H]1O` (stereo partly shown) [Acarbose, reference compound], for which the inhibition at 50 µM in series [1] turned out to be 97.8 ± 0.5%.
As to `CCCCOc1ccc(-c2cc(COc3c(-c4ccc(C(F)(F)F)cc4)oc4ccc(Cl)cc4c3=O)on2)cc1` [Compound 3i, 3-((3-(4-Butoxyphenyl)isoxazol-5-yl)methoxy)-6-chloro-2-(4-(trifluoromethyl)phenyl)-4H-chromen-4-one], the melting point is 130 °C. Further, the IC50 in series [1] (setting [2]) is 15.6 µM. Moreover, the IC50 in series [1] (setting [3]) amounted to 15.6 ± 0.2 µM. In addition, in series [1], the inhibition at 50 µM came to 79.4 ± 1%.
On the same counts, the results for `O=c1c(O)c(-c2ccc(C(F)(F)F)cc2)oc2ccc(Cl)cc12` [Compound 1, 6-Chloro-3-hydroxy-2-(4-(trifluoromethyl)phenyl)-4H-chromen-4-one] are 275 °C, 15.3 µM, 15.3 ± 0.4 µM and 75.2 ± 1.4%.
On the same counts, the results for `CCCCOc1ccc(-c2cc(COc3c(-c4ccc(C(F)(F)F)cc4)oc4ccc(Cl)cc4c3=O)on2)cc1Cl` [Compound 3j, 3-((3-(4-Butoxy-3-chlorophenyl)isoxazol-5-yl)methoxy)-6-chloro-2-(4-(trifluoromethyl)phenyl)-4H-chromen-4-one] are 134 °C, 13.7 µM, 13.7 ± 0.2 µM and 93.1 ± 0.9%.
For `O=c1c(OCc2cc(-c3ccc(Cl)cc3)no2)c(-c2ccc(C(F)(F)F)cc2)oc2ccc(Cl)cc12` [Compound 3c, 6-Chloro-3-((3-(4-chlorophenyl)isoxazol-5-yl)methoxy)-2-(4-(trifluoromethyl)phenyl)-4H-chromen-4-one], in that order: 177 °C, 14.4 µM, 14.4 ± 0.2 µM and 87.1 ± 0.7%.

The term IC50 denotes the concentration needed to halve the response being measured. For orientation: inhibition means the percentage by which the read-out fell short of the control. The term melting point denotes the temperature of the solid-liquid transition.
